Measured values taken from ChEMBL document CHEMBL1201862, “PubChem BioAssay data set” (2004).
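Cells were grown in 96-well plates and exposed to each compound for 48 hours at five concentrations; endpoints were interpolated linearly between bracketing concentrations, or set to the highest concentration if not reached. GI50 = concentration required for 50% inhibition of growth.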 The source made the active and inactive calls. Rule as the data show it: active = GI50 up to about 1.1 µM and inactive = higher.

What was measured:
Experiment in all cases: DTP human tumour cell line panel, 48 h
ACHN = tested on: ACHN
DMS-273 = tested on: DMS-273
SNB-19 = tested on: SNB-19
HCT-116 = tested on: HCT-116
SK-MEL-28 = tested on: SK-MEL-28
SK-MEL-2 = tested on: SK-MEL-2
CAKI-1 = tested on: CAKI-1
HT-29 = tested on: HT-29
A549 = tested on: A549
CCRF-CEM = tested on: CCRF-CEM
KM12 = tested on: KM12
TK-10 = tested on: TK-10
NCI-H226 = tested on: NCI-H226
DLD-1 = tested on: DLD-1
LXFL 529 = tested on: LXFL 529

Measured: GI50

NNC(=O)/C(=C/c1ccc(Cl)cc1Cl)NC(=O)c1ccccc1
inactive: ACHN > 100 µM | DMS-273 > 100 µM | SNB-19 > 100 µM | HCT-116 > 100 µM | SK-MEL-28 > 100 µM | SK-MEL-2 > 100 µM | CAKI-1 > 100 µM | HT-29 > 100 µM | A549 > 100 µM | CCRF-CEM 79.8 µM | KM12 > 100 µM | TK-10 > 100 µM | NCI-H226 > 100 µM | DLD-1 > 100 µM | LXFL 529 > 100 µM

O=c1ncccn1[C@@H]1O[C@H](CO)[C@H](O)C1O (stereo not given in full)
inactive: ACHN > 100 µM | DMS-273 > 77.1 µM | SNB-19 > 100 µM | HCT-116 > 70.8 µM | SK-MEL-28 > 100 µM | SK-MEL-2 > 73.5 µM | CAKI-1 38.8 µM | HT-29 > 95.1 µM | A549 > 89.5 µM | CCRF-CEM 49 µM | KM12 > 100 µM | TK-10 > 100 µM | NCI-H226 > 100 µM | DLD-1 > 100 µM | LXFL 529 > 100 µM

CN1C(=O)CC(c2cccc(C3CC(=O)N(C)C3=O)n2)C1=O (stereo not given)
inactive: ACHN > 100 µM | DMS-273 > 100 µM | SNB-19 > 100 µM | HCT-116 > 100 µM | SK-MEL-28 > 100 µM | SK-MEL-2 > 100 µM | CAKI-1 > 100 µM | HT-29 > 100 µM | A549 > 100 µM | CCRF-CEM > 100 µM | KM12 > 100 µM | TK-10 > 100 µM | NCI-H226 > 100 µM | DLD-1 > 100 µM | LXFL 529 > 100 µM

[O-][Cl+3]([O-])([O-])[O-].c1ccc(-c2csc3c4ccccc4c4ccccc4[n+]23)cc1
inactive: ACHN 10.2 µM | DMS-273 1.6 µM | SNB-19 2.15 µM | HCT-116 2.32 µM | SK-MEL-28 2.7 µM | SK-MEL-2 2.54 µM | CAKI-1 7.5 µM | HT-29 4.15 µM | A549 2.17 µM | CCRF-CEM 2.25 µM | KM12 1.47 µM | TK-10 13.6 µM | NCI-H226 3.1 µM | DLD-1 5.58 µM | LXFL 529 1.84 µM

C=C(C)C1CC=C(C)C(O)([C@@]2(O)C[C@H](C(=C)C)CC=C2C)C1 (stereo not given in full)
inactive: ACHN 20.3 µM | DMS-273 16.2 µM | SNB-19 32.1 µM | HCT-116 17.6 µM | SK-MEL-28 28.3 µM | SK-MEL-2 17.4 µM | CAKI-1 13.5 µM | HT-29 17.3 µM | A549 29.7 µM | CCRF-CEM 20.1 µM | KM12 19.3 µM | TK-10 33.3 µM | NCI-H226 > 10 µM | DLD-1 30.3 µM | LXFL 529 26.6 µM
